In patent US12268683B2, “Compounds and methods for synergistic activation of M channels” (THE REGENTS OF THE UNIVERSITY OF CALIFORNIA, priority 2018, dated 2025):

What was measured:
GLRA1 = biological target: T1, GLRA1 (Homo sapiens, UniProt P23415); assay: TEVC of glycine receptor GLRA1 expressed in oocytes; format: cell-based; conditions: for activation of GLRA1 by compound alone: 1 mM
T1 sequence (P23415 29-457): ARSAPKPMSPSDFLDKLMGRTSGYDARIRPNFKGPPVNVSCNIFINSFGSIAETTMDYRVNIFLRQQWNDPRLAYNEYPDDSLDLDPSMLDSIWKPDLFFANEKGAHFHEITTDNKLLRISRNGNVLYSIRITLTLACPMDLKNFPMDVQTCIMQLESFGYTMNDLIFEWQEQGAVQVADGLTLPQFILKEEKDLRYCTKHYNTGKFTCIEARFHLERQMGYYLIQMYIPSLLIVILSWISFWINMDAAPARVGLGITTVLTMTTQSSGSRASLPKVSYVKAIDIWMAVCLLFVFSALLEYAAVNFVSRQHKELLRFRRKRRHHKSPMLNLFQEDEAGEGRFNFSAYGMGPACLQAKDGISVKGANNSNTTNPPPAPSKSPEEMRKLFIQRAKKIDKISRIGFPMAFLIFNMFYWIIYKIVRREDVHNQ
Text: We generated cRNA transcripts encoding human KCNQ1, KCNQ2, KCNQ3, KCNQ4, KCNQ5 or GLRA1 (NM_001146040) (GenScript, Piscataway, N.J., USA) by in vitro transcription using the T7 polymerase mMessage mMachine kit (Thermo Fisher Scientific), after vector linearization, from cDNA sub-cloned into plasmids incorporating Xenopus laevis β-globin 5′ and 3′ UTRs flanking the coding region to enhance translation and cRNA stability. We quantified cRNA by spectrophotometry. We generated mutant KCNQ2 and KCNQ3 cDNAs by site-directed mutagenesis using a QuikChange kit (Stratagene, San Diego, Calif.) and prepared the corresponding cRNAs as above. We injected defolliculated stage V and VI Xenopus laevis oocytes (Ecocyte Bioscience, Austin, Tex. and Xenoocyte, Dexter, Mich.) with KCNQ channel a subunit (5-20 ng) or GLRA1 (20 ng) cRNAs. We incubated the oocytes at 16° C. in Barth's saline solution (Ecocyte) containing penicillin and streptomycin, with daily washing, for 2-5 days prior to two-electrode voltage-clamp (TEVC) recording.
We performed TEVC at room temperature using an OC-725C amplifier (Warner Instruments, Hamden, Conn.) and pClamp10 software (Molecular Devices, Sunnyvale, Calif.) 3-5 days after cRNA injection as described in the section above. For recording, oocytes were placed in a small-volume oocyte bath (Warner) and viewed them with a dissection microscope. Chemicals were sourced from Sigma, Matrix Scientific and Santa Cruz. […] All stock solutions were diluted in bath solution on the day of experiments. KCNQ2/3 channel activation was screened for using either 30 μM or 100 μM concentrations of each of the six compounds, then dose responses were conducted as appropriate. Bath solution was (in mM): 96 NaCl, 4 KCl, 1 MgCl2, 1 CaCl2, 10 HEPES (pH 7.6). Compounds were introduced into the oocyte recording bath by gravity perfusion at a constant flow of 1 ml per minute for 3 minutes prior to recording. Pipettes were of 1-2 MΩ resistance when filled with 3 M KCl. Currents were recorded in response to voltage pulses between −120 or −80 mV and +40 mV at 20 mV intervals from a holding potential of −80 mV, to yield current-voltage relationships, current magnitude, and for quantifying activation rate. We analyzed data using Clampfit (Molecular Devices) and Graphpad Prism software (GraphPad, San Diego, Calif., USA); values are stated as mean±SEM. We plotted raw or normalized tail currents versus prepulse voltage and fitted with a single Boltzmann function: […]

KCNQ1-R243A = KCNQ1-R243A (Homo sapiens, UniProt P51787, R243A); assay: TEVC of R243A KCNQ1 channels; format: cell-based
Text: (§1) As previously described (12), we generated cRNA transcripts encoding human KCNA1, KCNE1, KCNE2, KCNE3, KCNQ1, KCNQ2, KCNQ3, KCNQ4 or KCNQ5 by in vitro transcription using the T7 polymerase mMessage mMachine kit (Thermo Fisher Scientific), after vector linearization, from cDNA sub-cloned into plasmids incorporating Xenopus laevis β-globin 5′ and 3′ UTRs flanking the coding region to enhance translation and cRNA stability. We quantified cRNA by spectrophotometry. We generated mutant KCNQ2 and KCNQ3 cDNAs by site-directed mutagenesis with a QuikChange kit (Stratagene, San Diego, Calif.) and prepared the cRNAs as above. We injected defolliculated stage V and VI Xenopus laevis oocytes (Ecocyte Bioscience, Austin, Tex. and Xenoocyte, Dexter, Mich., US) with KCNE and/or KCNQ cRNAs (5-20 ng). […]
(§2) We performed TEVC at room temperature using an OC-725C amplifier (Warner Instruments, Hamden, Conn.) and pClamp10 software (Molecular Devices, Sunnyvale, Calif.) 2-5 days after cRNA injection as described in the section above. […] We recorded currents in response to voltage pulses between −120 or −80 mV and +40 mV at 20 mV intervals from a holding potential of −80 mV, to yield current-voltage relationships, current magnitude, and for quantifying activation rate. We analyzed data using Clampfit (Molecular Devices) and Graphpad Prism software (GraphPad, San Diego, Calif., USA); values are stated as mean±SEM. […]

bacteria = conditions: read-out: bactericidal activity EC50; cited from earlier work
KCNQ1/KCNE3 = KCNQ1/KCNE3 (Homo sapiens, UniProt P51787); assay: TEVC of KCNQ1/KCNE3 channels; format: cell-based
Text: as §1, §2

KCNQ1-R243A/KCNE1 = KCNQ1-R243A/KCNE1 (Homo sapiens, UniProt P51787, R243A); assay: TEVC of R243A KCNQ1/KCNE1 channels; format: cell-based
Text: as §1, §2

KCNQ2/KCNQ3-R242A = KCNQ2/KCNQ3-R242A (Homo sapiens, UniProt O43525+O43526, R242A); assay: TEVC of KCNQ2/KCNQ3-R242A channels; format: cell-based
Text: as §1, §2

Structure (SMILES) | inhibition of glycine-activated GLRA1 (GLRA1; 100 μM, 1 mM glycine) | inhibition of glycine-activated GLRA1 (in words) (GLRA1; 100 μM, 1 mM glycine) | activation of GLRA1 by compound alone (GLRA1) | effect of R243A mutation on (E)-2-dodecenal action in KCNQ1 (KCNQ1-R243A) | EC50 (bacteria) | effect on KCNQ1/KCNE3 (in words) (KCNQ1/KCNE3) | effect of R243A mutation on (E)-2-dodecenal action in KCNQ1/KCNE1 (KCNQ1-R243A/KCNE1) | response of KCNQ2/KCNQ3-R242A (in words) (KCNQ2/KCNQ3-R242A)
CS(=O)(=O)N(CC(=O)O)c1cccc(F)c1 [3FMSG] | ~40% | partially inhibited | lack of effects | – | – | – | – | –
CCCCCCCCC/C=C/C=O [(E)-2-dodecenal] | – | – | – | slightly increased (E)-2-dodecenal efficacy | > 30 µM | activated | reduced (E)-2-dodecenal efficacy twofold | almost as much as wild-type KCNQ2/3
NCC(=O)O [glycine, reference compound] | – | – | robust activation | – | – | – | – | –
